Data taken from patent publication US10317395B1, “Ex vivo engineered immune organoids for controlled germinal center reactions” (Cornell University, priority 2015, dated 2019).
“Also recorded” adds a separate entry of the source.

Test system: CD19+ B cells
Assay: RGD blocking of B cells with Cilengitide
Assay type: cell-based, C57BL6 mice
Conditions: 10 or 50 μM Cilengitide, 2 days, 3D organoids; αvβ3 and αvβ5 integrin binding to RGD
Method: Immune organoids were incubated in rinsed and incubated in FACS buffer containing fluorescence-conjugated antibodies and/or live cell stains for 12 hours at cell culture conditions. The samples underwent three rinsing rounds with each one involving aspiration of old medium and incubation in fresh FACS buffer for 1 hour. Each organoid was covered with 1×PBS during imaging with Zeiss 710 confocal microscope (Zeiss). In all flow cytometry experiments we started with same number of naïve B cells, i.e. 20,000 B cells. At each time point, samples were degraded using collagenase and the entire cell suspension (regardless of final cell numbers) was re-suspended in equal volume for all samples and equally divided into 3 separate staining groups for flow cytometry analysis (to stain for CD19, GL7, Fas, IgM, IgG1, and IgE). The entire volume was analyzed for total number of cells. Extracted cells were stained by incubation in FACS buffer containing various combinations of antibodies with 1:1000 dilution for 45 minutes in the dark at 4° C. The antibodies consisted of: FITC-, APC, or PE-Cy7-conjugated anti-mouse CD19, GL7, Fas, CD40L, IgG, and IgM (eBioscience). FACS buffer was prepared using 1×PBS++ with 10% FBS. The cell suspension was rinsed twice using the same buffer prior to low cytometer using BD Accuri™ C6 flow cytometer. Data analysis was performed using FlowJo (Tree Star). […]

Compound: CC(C)[C@H]1C(=O)N[C@@H](CCCN=C(N)N)C(=O)NCC(=O)N[C@@H](CC(=O)O)C(=O)N[C@H](Cc2ccccc2)C(=O)N1C [Cilengitide]
- change in CD19+ B cells when RGD signaling is blocked: partial reduction; also recorded: partial but significant decrease
